Where two headings read alike, the source gives them in different places.
Tests used:
tNOX from HeLa = target: T1, tNOX from HeLa (Homo sapiens, UniProt Q16206); test: Spectrophotometric NADH oxidase assay, NOX activity from the HeLa cell surface; format: biochemical; details: for Response of NOX activity from the HeLa cell surface when combined with sulforaphane: sequential additions, preceding or following sulforaphane (FIGS. 7, 8)
T1 construct: The cells were thawed at room temperature, resuspended and incubated at 37° C. for 1 h to release the protein
T1 sequence (Q16206 1-610): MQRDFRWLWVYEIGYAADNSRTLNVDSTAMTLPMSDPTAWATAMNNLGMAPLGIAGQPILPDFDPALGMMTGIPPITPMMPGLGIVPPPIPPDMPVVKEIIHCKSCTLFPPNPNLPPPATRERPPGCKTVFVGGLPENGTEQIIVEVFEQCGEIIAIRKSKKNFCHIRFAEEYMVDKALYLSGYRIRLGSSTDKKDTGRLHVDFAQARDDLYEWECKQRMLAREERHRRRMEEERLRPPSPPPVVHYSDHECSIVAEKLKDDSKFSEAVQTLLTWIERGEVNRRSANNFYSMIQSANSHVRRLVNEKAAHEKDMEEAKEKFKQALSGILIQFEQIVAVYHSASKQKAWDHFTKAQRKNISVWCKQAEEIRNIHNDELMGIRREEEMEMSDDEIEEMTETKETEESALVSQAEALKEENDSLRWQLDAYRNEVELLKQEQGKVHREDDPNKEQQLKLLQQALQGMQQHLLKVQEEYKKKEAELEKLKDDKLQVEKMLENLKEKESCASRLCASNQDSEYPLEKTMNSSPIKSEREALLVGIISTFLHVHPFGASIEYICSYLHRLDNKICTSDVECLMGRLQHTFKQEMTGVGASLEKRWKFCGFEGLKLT
Procedure: HeLa S cells (grown in suspension) were collected by centrifugation and shipped frozen by a commercial supplier (Cellex Biosciences, Minneapolis, Minn.) In 0.1 m sodium acetate, pH 5, in a ratio of 1 mL packed cell volume to 1 mL acetate. The cells were thawed at room temperature, resuspended and incubated at 37° C. for 1 h to release the protein. The cells were removed by centrifugation at 37000 g for 60 min and the cell-free supernatants were refrozen and stored in 1 mL samples at −70° C.

[1] = target: tNOX of 4T1 mouse mammary cells (Mus musculus, UniProt Q8R0Z2); test: biochemical
Sequence of tNOX of 4T1 mouse mammary cells (Q8R0Z2 whole entry): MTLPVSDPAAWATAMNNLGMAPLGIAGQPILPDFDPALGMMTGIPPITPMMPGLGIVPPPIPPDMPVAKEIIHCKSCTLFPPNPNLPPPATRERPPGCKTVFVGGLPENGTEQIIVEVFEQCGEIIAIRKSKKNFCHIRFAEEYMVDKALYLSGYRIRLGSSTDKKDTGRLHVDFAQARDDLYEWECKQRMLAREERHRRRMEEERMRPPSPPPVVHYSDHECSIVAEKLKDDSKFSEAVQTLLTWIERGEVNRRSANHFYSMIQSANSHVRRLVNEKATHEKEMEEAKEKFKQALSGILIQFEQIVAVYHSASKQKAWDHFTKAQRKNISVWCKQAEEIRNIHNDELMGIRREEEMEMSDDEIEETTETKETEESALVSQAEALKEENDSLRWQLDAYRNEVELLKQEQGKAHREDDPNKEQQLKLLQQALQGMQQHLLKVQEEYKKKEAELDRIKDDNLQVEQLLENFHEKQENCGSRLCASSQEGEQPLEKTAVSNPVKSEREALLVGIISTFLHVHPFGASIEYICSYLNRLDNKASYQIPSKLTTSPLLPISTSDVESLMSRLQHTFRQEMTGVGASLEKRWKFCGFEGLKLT
Procedure: (§1) NADH oxidase activity was determined as the disappearance of NADH measured at 340 nm in a reaction mixture containing 25 mM Tris-Mes buffer (pH 7.2), 1 mM KCN to inhibit low levels of mitochondrial oxidase activity, and 150 ([…] NADH at 37° C. with temperature control (±0.5°) and stirring (14). Activity was measured using paired Hitachi U3210 spectrophotometers. Assays were initiated by addition of NADH. With plasma membranes and whole cells, assays were for 1 min and were repeated on the same sample every 1.5 min for the time indicated. A millimolar extinction coefficient of 6.22 was used to determine specific activity. Proteins were estimated by the bicinchoninic acid method with bovine serum albumin as standard.

[2] = test system: CNOX activity of soybean plasma membranes; details: plasma membranes from dark-grown soybean hypocotyls, lack tNOX (FIG. 5)
Procedure: as §1

[3] = target: CNOX of non-cancer MCF-10A human mammary epithelia (Homo sapiens, UniProt Q8TC92); details: non-cancer cells which lack tNOX (FIG. 4)
Sequence of CNOX of non-cancer MCF-10A human mammary epithelia (Q8TC92 whole entry): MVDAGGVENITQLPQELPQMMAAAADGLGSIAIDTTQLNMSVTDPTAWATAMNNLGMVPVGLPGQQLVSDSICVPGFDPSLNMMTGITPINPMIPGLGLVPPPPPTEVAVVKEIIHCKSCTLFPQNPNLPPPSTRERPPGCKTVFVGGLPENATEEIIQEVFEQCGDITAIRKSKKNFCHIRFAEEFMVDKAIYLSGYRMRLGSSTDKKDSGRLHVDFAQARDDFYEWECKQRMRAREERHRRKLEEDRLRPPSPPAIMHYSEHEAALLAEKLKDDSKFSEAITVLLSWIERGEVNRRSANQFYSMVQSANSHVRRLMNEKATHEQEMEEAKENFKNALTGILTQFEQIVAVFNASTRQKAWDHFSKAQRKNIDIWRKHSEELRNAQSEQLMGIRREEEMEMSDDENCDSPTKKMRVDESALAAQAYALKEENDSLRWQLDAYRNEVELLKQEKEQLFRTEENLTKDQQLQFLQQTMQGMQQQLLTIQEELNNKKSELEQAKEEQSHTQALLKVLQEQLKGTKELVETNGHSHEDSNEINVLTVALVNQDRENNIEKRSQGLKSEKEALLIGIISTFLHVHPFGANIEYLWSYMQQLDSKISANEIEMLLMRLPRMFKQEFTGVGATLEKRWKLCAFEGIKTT
Procedure: as §1

HeLa cells = test: Growth of HeLa cells in culture (96-well crystal violet); format: cell-based; details: Homo sapiens, 48 and 72 h of treatment (FIG. 6), read-out: EC50 for inhibition of growth of HeLa cells
Procedure: HeLa (ATCC CCL-2) human cervical adenocarcinoma cells were cultured in minimal essential medium (Eagle), with 2 mM L-glutamine and Earle's balanced salt solution adjusted to contain 1.5 g/L sodium bicarbonate, 0.2 mM non-essential amino adds, 1.0 mM sodium pyruvate and supplemented with 10% bovine calf serum (heat-inactivated) plus 50 mg/L gentamycin sulfate (Sigma).
HeLa (5×10^4) or CHO (10^4) cells were distributed into each plate well (Costar tissue culture plate).

[4] = test system: human mammary cancer (BT-20) cells; test: cells; details: BT-20, read-out: EC50 for inhibition of growth of BT-20 cells
Procedure: (§2) Growth was determined using a 96-well plate assay as described by Lin et al. (17). HeLa (5×10^4) or CHO (10^4) cells were distributed into each plate well (Costar tissue culture plate). The cells were grown at 37° C. for 24 h after which the substances to be evaluated were added followed by incubation for an additional 48 or 72 h as indicated. Medium was removed and the cells were washed with phosphate-buffered saline and then fixed by addition of […] 2.5% (v/v) glutaraldehyde for 0.5 h followed by a distilled water wash. The cells were stained with […] 1% aqueous crystal violet for 0.5 h, washed exhaustively with distilled water followed by […] 33% (v/v) acetic acid for 5 min. The absorbance was determined at 580 nm using an automated plate reader. Growth was determined according to the formula [(b−c)×100]/(a−c)] where a=absorbance of cells in medium without treatment b=cells in medium with treatment and c=medium alone (background).

non-cancer MCF-10A cells = details: compared with cancer cells
Procedure: as §2

C[S@@+]([O-])CCCCN=C=S [L-Sulforaphane]
EC50 (tNOX from HeLa; NOX activity from HeLa cell surface (FIGS. 1 and 2)): ~1000 µM
EC50 [1]: ~1000 µM
Effect on CNOX activity of soybean plasma membranes [2]: unaffected
Effect on CNOX activity of soybean plasma membranes ([2]; listed as Sulforaphane): does not inhibit
Effect on CNOX (NOX activity) of MCF-10A human mammary epithelia [3]: unaffected
Effect on CNOX (NOX activity) of MCF-10A human mammary epithelia ([3]; listed as Sulforaphane): does not inhibit
EC50 (HeLa cells): 100 to 1000 µM
EC50 [4]: 100 to 1000 µM
Inhibition of growth of non-cancer MCF-10A cells (non-cancer MCF-10A cells): inhibited to nearly the same extent as the cancer cells

COc1cc(CNC(=O)CCCC/C=C/C(C)C)ccc1O [capsaicin, 8-methyl-N-vanillyl-6-noneamide]
Response of NOX activity from the HeLa cell surface when combined with sulforaphane (tNOX from HeLa): beneficial response

COc1cc(CN)ccc1O [vanillylamine]
Response of NOX activity from the HeLa cell surface when combined with sulforaphane (tNOX from HeLa): beneficial response

(−)-epigallocatechin gallate [EGCg]
Response of NOX activity from the HeLa cell surface when combined with sulforaphane (tNOX from HeLa): antagonistic

Source: patent US20080095869A1, “Anticancer Treatment” (priority 2004, published 2008)
